Test results: paper PMC9658513, “Discovery of Compounds That Selectively Repress the Amyloidogenic Processing of the Amyloid Precursor Protein: Design, Synthesis and Pharmacological Evaluation of Diphenylpyrazoles” (International Journal of Molecular Sciences, 2022)

Experiments:
Assay type in all cases: cell-based, human
Aβ1–40 peptide secretion = test: Aβ1–40 secretion in cell medium by ELISA; conditions: Homo sapiens; SY5Y-APP^WT cells, 24 h treatment; mean ± SD of at least three experiments in triplicate; read-out: Aβ1–40 IC50
Experimental: (§1) The final and selected intermediate compounds were evaluated for their ability to modulate APP processing in the SH-SY5Y human neuroblastoma cell line stably expressing the neuronal isoform of human wild-type APP^695 (SY5Y-APP^WT), a well-established model for the study of APP metabolism. APP carboxy-terminal fragments (αCTFs and AICD) levels were assessed by Western blotting (WB). The effect of the reference and test compounds on αCTFs and AICD is expressed as the intensity of corresponding WB bands. The concentration of compounds able to increase 20-times αCTFs and AICD (C20) when compared to the control condition was calculated. Selected compounds were also evaluated for their ability to modulate the secretion of soluble APP fragments (sAPPα and sAPPβ). Aβ1–x levels (Aβ1–40 and Aβ1–42) after treatment with the reference and tested compounds were measured in the cell media by ELISA (Table 1). […] Selected hit compounds were then further evaluated for their ability to decrease the level of N-truncated Aβ peptides (Aβx–38, Aβx–40, and Aβx–42).
(§2) The human neuroblastoma cell line SY5Y-APP^695WT was maintained in Dulbecco’s modified Eagle medium (DMEM, high glucose, pyruvate—GIBCO, Life Technologies, Carlsbad, CA, USA) supplemented with 10% fetal bovine serum, 2 mM L-glutamine, 1 mM non-essential amino acids and penicillin/streptomycin (GIBCO, Life Technologies, Carlsbad, CA, USA) at 37 °C in a 5% CO2 humidified incubator [36]. For compound treatment, a 10 mM stock solution was diluted in freshly supplemented DMEM medium to obtain the precise final concentration of the drug. Cells were plated at a density of 5 × 10^5 cells per well into 12-well plates and cultured with 1 mL supplemented DMEM cell medium for 24 h before compound exposure. The following day, the cell medium was replaced with fresh medium containing the compounds diluted at the indicated concentrations. Cells were treated for 24 h. At the end of the treatments, the cell medium was collected and kept at −80 °C until use, cells were rinsed once with PBS and extracted in 100 µL of Laemmli buffer (10 mM Tris, 20% glycerol, and 2% sodium dodecyl sulfate) using a cell-scraper. The cell lysate was further sonicated (30 pulses of 0.5 s, 60 Hz) for 5 min. Total protein concentration was determined using the Pierce BCA Protein Assay Kit (Thermo Scientific, Waltham, MA, USA) according to the manufacturer’s instructions. Samples were stored at −80 °C until analysis.
(§3) Conditioned media of SY5Y-APP^695WT collected at the end of treatments were centrifuged at 1000× g for 5 min to eliminate cell debris.
(§4) Aβ1–40/Aβ1–42 peptides, Aβx–38/Aβx–40/Aβx–42, and sAPPα/sAPPβ concentrations in pg/mL were determined, respectively, using amyloid-beta 40 and 42 Human ELISA Kits (Invitrogen), the V-PLEX Plus Aβ Peptide Panel 1 (4G8) Kit (Meso Scale Diagnostics, MSD R©, Rockville, MD, USA), and the sAPPα/sAPPβ Multiplex Kit (Meso Scale Diagnostics, MSD R©, Rockville, MD, USA) according to the manufacturer’s instructions.

in vitro = conditions: human
Experimental: Cytotoxicity was measured using 3-(4,5-dimethylthiazol-2-yl)-5-(3-carboxymethoxyphenyl)-2-(4-sulfophenyl)-2H-tetrazolium (MTS) tests. SY5Y-APP^695WT cells were plated in a 96-well plate at 3 × 10^4 cells per well and allowed to attach for 24 h. Cells were then incubated for 72 h with 100 µL of DMEM with 10% SVF containing (or not) the defined concentration of drugs. Cytotoxicity was determined by using the colorimetric MTS assay (Cell Titer 96® Aqueous One Solution Cell Proliferation Assay-MTS Promega, Madison, WI, USA) according to the manufacturer’s instructions. Absorbance was read at 490 nm.

[1] = tested on: αCTF (APP carboxy-terminal fragment); test: αCTF level by Western blotting in SY5Y-APP^WT cells; conditions: Homo sapiens; concentration increasing αCTF 20-fold vs untreated control; SY5Y-APP^WT cells; read-out: αCTF (C20)
Experimental: as §1, §2
(§5) Cell protein lysates were prepared for Western blot analysis by diluting the sample with 1 volume of NuPAGE® lithium dodecyl sulfate (LDS) 2X sample buffer supplemented with 20% NuPAGE® sample reducing agents (Invitrogen). Samples were heated for 10 min at 100 °C. Ten µg of total proteins per well were loaded onto precast 4–12% Criterion XT Bis-Tris polyacrylamide gels (Bio-Rad) and electrophoresis was achieved after applying a tension of 150 V for 90 min using a Criterion electrophoresis cell with the NuPAGE® MOPS SDS running buffer (1X). Proteins were transferred to a nitrocellulose membrane of […] pore size (G&E Healthcare, Madison, WI, USA) using the Criterion blotting system and applying a tension of 100 V for 45 min. To resolve proteins of low molecular weights such as carboxy-terminal fragments of APP, 12% Criterion XT Bis-Tris polyacrylamide gels (Bio-Rad, Hercules, CA, USA) were used, and electrophoresis was performed for 70 min at 150 V in a NuPAGE® MES SDS running buffer (1X). Proteins were transferred to a nitrocellulose membrane of 0.2 µm pore size (G&E Healthcare, Madison, WI, USA) at 100 V for 40 min. Molecular weight calibration was achieved using molecular weight markers (Novex and Magic Marks, Life Technologies, Carlsbad, CA, USA). Protein transfer and quality were determined by a reversible Ponceau Red coloration (0.2% xylidine Ponceau Red and 3% trichloroacetic acid). […]

[2] = tested on: AICD (APP intracellular domain); test: AICD level by Western blotting in SY5Y-APP^WT cells; conditions: Homo sapiens, concentration increasing AICD 20-fold vs untreated control, read-out: AICD (C20)
Experimental: as §1, §2, §5

Aβ1–42 peptide secretion = test: Aβ1–42 secretion in cell medium by ELISA; conditions: Homo sapiens; SY5Y-APP^WT cells, 24 h treatment; mean ± SD of at least three experiments in triplicate
Experimental: as §1, §2, §3, §4

| Structure (SMILES) | IC50 (Aβ1–40 peptide secretion) [µM] | CC50 at 72 h (in vitro) [µM] | EC (20-fold increase) [1] [µM] | EC (20-fold increase) [2] [µM] | IC50 (Aβ1–42 peptide secretion) [µM] |
| --- | --- | --- | --- | --- | --- |
| CN(C)CCCc1ccc(-c2nn(-c3ccc(CO)cc3)cc2CN(C)C)cc1 [Compound 16, [4-[4-(Dimethylaminomethyl)-3-[4-[3-(dimethylamino)propyl]phenyl] Pyrazol-1-yl]phenyl]methanol] | 6.2 ± 0.6 | 23 | 3.6 | 4.6 | 6.5 ± 1.1 |
| CN(C)CCCc1ccc(-c2nn(-c3ccc(CO)cc3)cc2CCCN(C)C)cc1 [Compound 17, [4-[4-[3-(Dimethylamino)propyl]-3-[4-[3-(dimethylamino)propyl]phenyl] Pyrazol-1-yl]phenyl]methanol] | 4.8 ± 1.2 | 34 | 2 | 3.6 | 5.4 ± 2.4 |
| CN(C)CCCc1ccc(-c2nn(-c3ccc(CN(C)C)cc3)cc2CCCN(C)C)cc1 [Compound 25, 3-[4-[1-[4-(Dimethylaminomethyl)phenyl]-4-[3-(dimethylamino)propyl] Pyrazol-3-yl]phenyl]-N,N-dimethyl-propan-1-amine] | 2.9 ± 0.1 | > 100 | 1 | 1.2 | 3.2 ± 1 |
| CN(C)CCCc1ccc(-c2nn(-c3cccc(CN(C)C)c3)cc2CN(C)C)cc1 [Compound 26, 3-[4-[4-(Dimethylaminomethyl)-1-[3-(dimethylaminomethyl)phenyl] Pyrazol-3-yl]phenyl]-N,N-dimethyl-propan-1-amine] | 1.6 ± 0.1 | > 100 | 1.3 | 1.8 | 2.4 ± 0.7 |
| CN(C)CCCc1ccc(-c2nn(-c3cccc(CN(C)C)c3)cc2CCCN(C)C)cc1 [Compound 27, 3-[4-[1-[3-(Dimethylaminomethyl)phenyl]-4-[3-(dimethylamino)propyl] Pyrazol-3-yl]phenyl]-N,N-dimethyl-propan-1-amine] | 2.6 ± 0.1 | > 100 | 1.3 | 1.6 | 3.8 ± 0.4 |
| CN(C)CCCc1ccc(-c2nn(-c3ccc(CN4CCN(C)CC4)cc3)cc2CN(C)C)cc1 [Compound 28, 3-[4-[4-(Dimethylaminomethyl)-1-[4-[(4-methylpiperazin-1-yl)methyl] Phenyl]pyrazol-3-yl]phenyl]-N,N-dimethyl-propan-1-amine] | 1.9 ± 0.1 | > 100 | 1.2 | 1.7 | 2.4 ± 0.7 |
| CN(C)CCCc1ccc(-c2nn(-c3ccc(CN4CCN(C)CC4)cc3)cc2CCCN(C)C)cc1 [Compound 29, 3-[4-[4-[3-(Dimethylamino)propyl]-1-[4-[(4-methylpiperazin-1-yl) Methyl]phenyl]pyrazol-3-yl]phenyl]-N,N-dimethyl-propan-1-amine] | 3.4 ± 0.1 | > 100 | 1 | 2 | 5 ± 0.1 |
| CN(C)CCCc1ccc(-c2nn(-c3cccc(CN4CCN(C)CC4)c3)cc2CN(C)C)cc1 [Compound 30, 3-[4-[4-(Dimethylaminomethyl)-1-[3-[(4-methylpiperazin-1-yl)methyl] Phenyl]pyrazol-3-yl]phenyl]-N,N-dimethyl-propan-1-amine] | 2.2 ± 0.3 | > 100 | 1.2 | 1.6 | 3.8 ± 0.1 |
| CN(C)CCCc1ccc(-c2nn(-c3cccc(CN4CCN(C)CC4)c3)cc2CCCN(C)C)cc1 [Compound 31, 3-[4-[4-[3-(Dimethylamino)propyl]-1-[3-[(4-methylpiperazin-1-yl)methyl] Phenyl]pyrazol-3-yl]phenyl]-N,N-dimethyl-propan-1-amine] | 4 ± 0.6 | > 100 | 1 | 1.5 | 5.8 ± 0.6 |
| Cc1cn(-c2cccc(CO)c2)nc1-c1ccc(CN(C)C)cc1 [Compound 48, [3-[3-[4-(Dimethylaminomethyl)phenyl]-4-methyl-pyrazol-1-yl]phenyl] Methanol] | > 10 | 24 | – | – | > 10 |
| Cc1cn(-c2cccc(CO)c2)nc1-c1cccc(CN(C)CCCN(C)C)c1 [Compound 58, [3-[3-[3-[[3-(Dimethylamino)propyl-methyl-amino]methyl]phenyl]-4-methyl-pyrazol-1-yl]phenyl]methanol] | 3.3 ± 1.3 | 20 | > 10 | 7.9 | 3.5 ± 0.7 |
| Cc1cn(-c2cccc(CN(C)C)c2)nc1-c1ccc(CN(C)C)cc1 [Compound 61, {[4-(1-{3-[(Dimethylamino)methyl]phenyl}-4-methyl-1H-pyrazol-3-yl)phenyl]methyl}dimethylamine] | 3.9 ± 0.3 | 27 | 2.7 | 2.7 | 4.1 ± 2.1 |
| Cc1cn(-c2cccc(CN3CCN(C)CC3)c2)nc1-c1ccc(CN(C)C)cc1 [Compound 62, Dimethyl({[4-(4-methyl-1-{3-[(4-methylpiperazin-1-yl)methyl]phenyl}-1H-pyrazol-3-yl)phenyl]methyl})amine] | 2.4 ± 0.2 | 11 | 2 | 3.5 | 3.2 ± 0.8 |
| Cc1cn(-c2cccc(CN(C)CCCN(C)C)c2)nc1-c1ccc(CN(C)C)cc1 [Compound 63, [(4-{1-[3-({[3-(Dimethylamino)propyl](methyl)amino}methyl)phenyl]-4-methyl-1H-pyrazol-3-yl}phenyl)methyl]dimethylamine] | 2 ± 0.2 | 13 | 1.2 | 1.5 | 2.7 ± 0.2 |
| Cc1cn(-c2cccc(CN(C)C)c2)nc1-c1cccc(CN(C)C)c1 [Compound 64, 1-[3-[1-[3-(Dimethylaminomethyl)phenyl]-4-methyl-pyrazol-3-yl]phenyl]-N,N-dimethylmethanamine] | 3.8 ± 0.2 | > 100 | 3.8 | 4.9 | 4.1 ± 1.6 |
